What was measured:
NEP = biological target: T1, NEP (Rattus norvegicus, UniProt P07861); assay: NEP-inhibitory activity in rat kidney cortex membranes, [3H][Leu5]-enkephaline substrate; type: biochemical; details: [3H][Leu5]-enkephaline 15 nM, 20 minutes at 30° C., pH 7.4, compounds of formula I tested as lithium salts
T1 construct: evaluated in rat kidney cortex membranes; from tissue; host or cells: kidney cortex membranes of male Sprague-Dawley rats
T1 sequence (P07861 1-750): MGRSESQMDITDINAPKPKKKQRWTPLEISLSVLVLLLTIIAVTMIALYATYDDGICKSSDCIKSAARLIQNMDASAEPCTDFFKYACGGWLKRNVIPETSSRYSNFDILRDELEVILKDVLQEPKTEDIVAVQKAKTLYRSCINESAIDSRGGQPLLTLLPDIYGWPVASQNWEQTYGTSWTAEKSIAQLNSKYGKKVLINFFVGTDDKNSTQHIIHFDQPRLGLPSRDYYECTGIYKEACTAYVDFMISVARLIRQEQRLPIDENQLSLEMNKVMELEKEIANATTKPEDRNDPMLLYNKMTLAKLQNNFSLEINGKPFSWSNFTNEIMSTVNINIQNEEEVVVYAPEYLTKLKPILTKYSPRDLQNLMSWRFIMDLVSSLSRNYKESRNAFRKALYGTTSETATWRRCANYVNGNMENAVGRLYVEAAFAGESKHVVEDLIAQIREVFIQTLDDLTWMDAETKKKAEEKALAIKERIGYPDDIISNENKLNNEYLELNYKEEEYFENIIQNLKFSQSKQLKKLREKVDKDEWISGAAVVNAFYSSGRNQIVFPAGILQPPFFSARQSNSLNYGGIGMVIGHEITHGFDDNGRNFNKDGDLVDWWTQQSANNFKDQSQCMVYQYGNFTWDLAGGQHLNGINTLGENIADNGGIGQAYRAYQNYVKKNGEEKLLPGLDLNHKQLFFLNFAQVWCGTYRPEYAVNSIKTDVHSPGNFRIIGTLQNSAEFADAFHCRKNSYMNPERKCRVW
Method: a) NEP-inhibitory activity
The NEP-inhibitory activity was evaluated in rat kidney cortex membranes prepared according to the procedure described by T. Maeda et al. in Biochim biophys. Acta 1983, 731 (1), 115-120.
By working at 0°-4° C. kidneys were removed from male Sprague-Dawley rats weighing approximately 300 g.
Kidney cortex was carefully dissected, finely minced and suspended in a homogenization buffer (10 mM sodium phosphate pH 7.4 containing 1 mM MgCl2, 30 mM NaCl, 0.02% NaN3) 1:15 weight/volume.
The tissue was then homogenized for 30 seconds by using an Ultra-Turrax homogenizer.
Approximately 10 ml of homogenate were layered over 10 ml of sucrose (41% weight/volume) and centrifuged at 31200 rpm for 30 minutes at 4° C. in a fixed angle rotor.
The membranes were collected from the buffer/sucrose interface, washed twice with 50 mM TRIS/HCl buffer (pH 7.4) and resuspended into the same buffer for storage.
The membranes were stored in small aliquots at -80° C. until use.
The NEP-inhibitory activity was evaluated according to the method described by C. Llorens et al., in Eur. I. Pharmacol., 69, (1981), 113-116, as reported hereinafter.
Aliquots of the membrane suspension prepared as above described (concentration 5 μg/ml of proteins) were preincubated in the presence of an aminopeptidase inhibitor (Bestatin--1 mM) for 10 minutes at 30° C.
[^3 H][Leu^5 ]-enkephaline (15 nM) and buffer TRIS/HCl pH 7.4 (50 mM) were added in order to obtain a final volume of 100 μl.
Incubation (20 minutes at 30° C.) was stopped by adding HCl 0.1 M (100 μl).
The formation of the metabolite [^3 H]Tyr-Gly-Gly was quantified, after separation of the unreacted substrate by chromatography on polystirene columns (Porapak Q), by measuring the relative radioactivity through liquid scintillation.
The percentage of inhibition of the metabolite formation in the membrane preparations treated with the compounds of formula I and with the comparative compounds with respect to the untreated membrane preparations was expressed as IC50 (nM) value.
(§1) The compounds of formula I were tested in the form of lithium salts.

ACE = biological target: T2, ACE (Oryctolagus cuniculus, UniProt P12822); assay: ACE-inhibitory activity, FAPGG substrate, absorbance at 340 nm; type: biochemical; details: ACE purified by lung rabbit; FAPGG 0.8 mM; 37° C.; compounds of formula I tested as lithium salts
T2 construct: purchased SIGMA; host or cells: rabbit lung
T2 sequence (P12822 34-1310): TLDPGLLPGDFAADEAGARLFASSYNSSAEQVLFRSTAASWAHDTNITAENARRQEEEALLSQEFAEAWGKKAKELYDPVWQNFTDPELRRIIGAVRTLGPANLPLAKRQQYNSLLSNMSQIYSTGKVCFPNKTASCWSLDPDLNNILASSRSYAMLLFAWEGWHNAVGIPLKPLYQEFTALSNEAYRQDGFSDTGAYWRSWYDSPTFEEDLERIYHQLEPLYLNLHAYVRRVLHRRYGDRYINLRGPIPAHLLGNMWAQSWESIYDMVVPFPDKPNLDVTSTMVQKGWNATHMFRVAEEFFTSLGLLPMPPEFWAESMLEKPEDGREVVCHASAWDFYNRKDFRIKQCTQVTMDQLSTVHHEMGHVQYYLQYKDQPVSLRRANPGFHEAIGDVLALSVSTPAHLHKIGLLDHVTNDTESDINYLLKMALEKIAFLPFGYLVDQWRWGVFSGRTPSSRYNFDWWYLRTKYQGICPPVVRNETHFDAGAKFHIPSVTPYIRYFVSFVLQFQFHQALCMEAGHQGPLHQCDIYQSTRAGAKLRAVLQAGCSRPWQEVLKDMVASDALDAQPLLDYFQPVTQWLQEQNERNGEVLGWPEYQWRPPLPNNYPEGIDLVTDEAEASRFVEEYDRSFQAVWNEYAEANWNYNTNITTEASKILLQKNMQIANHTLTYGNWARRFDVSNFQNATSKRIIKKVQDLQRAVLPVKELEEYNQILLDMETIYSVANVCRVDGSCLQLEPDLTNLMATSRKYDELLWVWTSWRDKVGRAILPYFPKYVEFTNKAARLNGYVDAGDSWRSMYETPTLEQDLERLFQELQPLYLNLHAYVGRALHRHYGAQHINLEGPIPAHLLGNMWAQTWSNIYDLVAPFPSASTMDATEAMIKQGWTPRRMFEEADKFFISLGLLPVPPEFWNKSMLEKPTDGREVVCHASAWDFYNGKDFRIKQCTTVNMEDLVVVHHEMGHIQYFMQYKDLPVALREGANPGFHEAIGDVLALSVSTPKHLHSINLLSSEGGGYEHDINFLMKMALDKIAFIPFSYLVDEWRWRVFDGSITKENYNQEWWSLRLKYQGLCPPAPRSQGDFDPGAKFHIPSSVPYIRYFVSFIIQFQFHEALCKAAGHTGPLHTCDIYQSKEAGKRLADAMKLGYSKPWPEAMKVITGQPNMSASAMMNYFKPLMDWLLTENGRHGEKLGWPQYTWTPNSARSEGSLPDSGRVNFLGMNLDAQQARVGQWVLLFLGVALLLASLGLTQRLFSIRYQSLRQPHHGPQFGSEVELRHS
Method: b) ACE-inhibitory activity
50 μM of ACE (250 mU/ml purified by lung rabbit, EC 3.4.15.1 SIGMA) were preincubated with 50 μl of the compound of formula I or of the comparison compound in thermostated cuvettes at 37° C.
The reaction was started by adding furylacryloylphenylalanylglycylglycine 0.8 mM (FAPGG-SIGMA).
Contemporaneously, by using a Beckman DU-50 spectrophotometer provided with a program for calculating delta A/minutes and regression coefficients of the enzyme kinetics curves, the absorbance at 340 10^-9 m was recorded in continuo for 5 minutes.
The percentage of enzyme inhibition in the preparations treated with the compounds of formula I or with the comparison compounds with respect to the untreated preparations was expressed as IC50 (nM) value.
as §1

| IC50 (NEP) | ACE-inhibitory activity IC50 (nM) (ACE) | NEP-inhibitory activity IC50 (nM) (NEP) | IC50 (ACE) | Compound |
| --- | --- | --- | --- | --- |
| 0.16 µM | not active |  |  | COCCOCC(CC1(C(=O)N[C@H]2CC[C@@H](C(=O)O)CC2)CCCC1)C(=O)O (relative stereo) [Candoxatrilat, 3-[1-[(Cis-4-carboxycyclohexyl)carbamoyl]cyclopentyl]-2-(2-methoxyethoxymethyl)-propionic acid, reference compound] |
|  |  | not active |  | C[C@H](CS)C(=O)N1CCC[C@H]1C(=O)O [Captopril, reference compound] |
| 0.036 µM |  |  | 0.0064 µM | CC(C)CC(CP(=O)(O)CNC(=O)OCc1ccccc1)C(=O)N[C@@H](Cc1ccc(-c2ccccc2)cc1)C(=O)O (stereo partly drawn) [Compound 2, N-[3-[(benzyloxycarbonylaminomethyl)(hydroxy)phosphinyl]-2-isobutyl-propionyl]-(1,1'-biphenyl-4-yl)-L-alanine] |
| 0.252 µM |  |  | 0.03 µM | O=C(NCP(=O)(O)CC(Cc1ccccc1)C(=O)N[C@@H](Cc1ccc(-c2ccccc2)cc1)C(=O)O)OCc1ccccc1 (stereo partly drawn) [Compound 3, N-[3-[(benzyloxycarbonylaminomethyl)(hydroxy)phosphinyl]-2-benzyl-propionyl]-(1,1'-biphenyl-4-yl)-L-alanine] |
| 0.335 µM |  |  | 0.012 µM | O=C(NCP(=O)(O)CC(Cc1cccs1)C(=O)N[C@@H](Cc1ccc(-c2ccccc2)cc1)C(=O)O)OCc1ccccc1 (stereo partly drawn) [Compound 4, N-[3-[(benzyloxycarbonylaminomethyl)(hydroxy)phosphinyl]-2-(2-thienylmethyl)propionyl]-(1,1'-biphenyl-4-yl)-L-alanine] |
| 0.0485 µM |  |  | 0.025 µM | CC(C)CC(CP(=O)(O)CNC(=O)OCc1ccccc1)C(=O)N[C@@H](Cc1ccc(-c2nccs2)cc1)C(=O)O (stereo partly drawn) [Compound 5, N-[3-[(benzyloxycarbonylaminomethyl)(hydroxy)phosphinyl]-2-isobutyl-propionyl]-[4-(2-thiazolyl)-phenyl]-L-alanine] |
